Source: article PMC3130785, “Small Compound 6-O-Angeloylplenolin Induces Mitotic Arrest and Exhibits Therapeutic Potentials in Multiple Myeloma” (PLoS ONE, 2011)

Key:
pERK1/2 = experiment: Western blotting, 6-OAP/BOR; type: cell-based, human; details: MM.1S; 6-OAP 5 µM for 6 h
Procedure: (§1) Cell pellets were lysed in RIPA buffer containing 50 mM Tris pH 8.0, 150 mM NaCl, 0.1% SDS, 0.5% deoxycholate, 1% NP-40, 1 mM DTT, 1 mM NaF, 1 mM sodium vanadate, and protease inhibitors cocktail (Sigma). For immunoprecipitations, cells were lysed on ice for 15 minutes in RIPA buffer. Lysates were centrifuged. The supernatant was incubated with indicated antibodies overnight, after which protein A/G Plus beads (Santa Cruz Biotechnology) were added and incubated for 3 h. The beads were washed 4 times in RIPA buffer. Then the beads were resuspended in 1× sample buffer and boiled for 3 min. Protein extracts were quantitated and loaded on 8% to 12% sodium dodecyl sulfate polyacrylamide gel, electrophoresed, and transferred to a nitrocellulose membrane (Whatman). The membrane was incubated with primary antibody, washed, and incubated with horseradish peroxidase (HRP)–conjugated secondary antibody (Pierce). Detection was performed by using a chemiluminescent western detection kit (Cell Signaling). […]

pAkt = experiment: Western blotting, IGF-I stimulation; type: cell-based, human; details: MM.1S; 6-OAP 7.5 µM for 12 h; IGF-I 50 ng/ml
Procedure: as §1
(§2) Figure 5 6-OAP overcomes the protective effects of IL-6, IGF-I and BMSCs on MM cells. […] Cell proliferation was assessed by MTT assay. […] Cell proliferation was assessed by MTT assay. *p<.01,** p<.05. […]

PDK-1 = experiment: Western blotting, IGF-I stimulation; type: cell-based, human; details: MM.1S; IGF-I 50 ng/ml
Procedure: as §1, §2

[1] = tested on: human HL-60 leukemia cells; design: method as in PMID 18077129; details: mitochondrial/caspase and NF-κB pathway; cited from earlier work
pJak2 and pStat3 = experiment: Western blotting, IL-6 stimulation; type: cell-based, human; details: MM.1S
Procedure: as §1, §2

CC=C(C)C(=O)OC1C2C(CC(C)C3C=CC(=O)C31C)OC(=O)C2C (stereo not drawn) [6-OAP, 6-O-angeloylplenolin]
phosphorylated ERK1/2 (pERK1/2): induced an increase in phosphorylated ERK1/2 | IGF-I-induced pAkt expression (pAkt): inhibited | phosphorylation of PDK-1 (PDK-1): not affected | apoptosis [1]: induce apoptosis | pStat3 in cells upon IL-6 (pJak2 and pStat3; IL-6 10 ng/ml, then 6-OAP 5 to 10 µM for 12 h): dramatically reduced | IL-6-induced pJak2 and pStat3 (pJak2 and pStat3; pretreatment 6-OAP for 12 hours, IL-6 10 ng/ml 10 to 30 min): markedly inhibited IL-6-induced upregulation of pJak2 and pStat3
